Source: patent publication US8372409B2, “Dendritic cell binding proteins and uses thereof” (University of Florida Research Foundation, Inc., priority 2003, dated 2013)

Columns and labels:
[1] = tested on: CD1a+DRbright CD11bright monocyte-derived human DC; experiment: FACS binding of biotinylated DC-peptides to human monocyte-derived DC; settings: for binding to monocyte-derived human DC: biotinylated peptides, FACS and confocal microscopy (FIG. 1A, 1B)
Method: (§1) Peripheral blood mononuclear cells (PBMCs) were isolated from blood of healthy or HCV^+ individuals by Ficoll gradient centrifugation. HCV RNA was detected in the blood of HCV-infected patients by RT-PCR. PBMCs (10^7/well) were seeded in 6-well plates for 2 hrs at 37° C. Subsequently, non-adherent cells were removed by several washes using PBS plus 2% fetal calf serum (FCS) and frozen for autologous MLR experiments. Adherent monocytes were cultured with GM-CSF (100 ng/ml) and IL-4 (10 ng/ml) in complete RPMI for 6 days (6). CD1a^+DR^bright DC were phenotyped by FACS before use. Rhesus macaque or chimpanzees DC were prepared in a parallel fashion by using Hgm-CSF (100 ng/ml) and Hil-4 (50 ng/ml) for six days (15). Mouse DC were prepared from bone marrow of BALB/c mice as described (16). On day six, CD11c^+I-A^+ DC were harvested, phenotyped and used for DC-peptide staining.
(§2) MDC (5×10^5) were incubated with biotinylated peptides (10 μg/ml each) for 1 hr at 4° C. Subsequently, cells were washed, incubated with SA-PE (1:100) for 1 hr, fixed with 0.1% paraformaldehyde and analyzed on a FACSCalibur™ using standard CellQuest software (Becton Dickinson). T cells were analyzed as we described (19). At least 10^4 gated events/condition were acquired for all analyses.
(§3) To test peptide binding specificity, biotinylated peptides #3, #12 and #18 were incubated with CD1a^+DR^bright CD11^bright monocyte-derived human DC, and analyzed by FACS.
The cognate ligands for these peptides are unknown. Thus, we next tested whether these peptides bound distinct epitopes. DC presaturated with non-biotinylated peptide no longer bound the corresponding biotinylated peptide (FIG. 2A). […] Thus, the three DC-binding peptides bound distinct, saturable DC surface epitopes.
Biotinylated peptide #3 bound immature DC within 1 hr at 4° C. (FIG. 2D). Staining was decreased over the following 20 hrs at 37° C. (FIG. 2D) consistent with antigen uptake by Dcs (15, 22). […] Peptides bound immature (upper panel) and mature MDC (lower panel) comparably (FIG. 2E), although LPS-mediated maturation appeared to increase peptide binding slightly by inducing a new, minor population of high peptide-binding DC.

[2] = tested on: monocyte-derived DC from chimpanzee; experiment: FACS binding of biotinylated DC-peptides to chimpanzee DC
Method: as §1, §2, §3

[3] = tested on: CD11c+I-A+ DC derived from mouse bone marrow; experiment: FACS binding of biotinylated DC-peptides to mouse bone marrow derived DC; settings: FACS (FIG. 1F)
Method: as §1, §2, §3

[4] = tested on: monocyte-derived DC from rhesus macaque; experiment: FACS binding of biotinylated DC-peptides to rhesus macaque DC; settings: FACS (FIG. 1E)
Method: as §1, §2, §3

Sequence | binding to monocyte-derived human DC [1] | binding to monocyte-derived DC from chimpanzee [2] | binding to CD11c+I-A+ DC derived from mouse bone marrow [3] | binding to monocyte-derived DC from rhesus macaque [4] | binding of 12-mer peptide to DC ([1]; selected from the same panning as negative control) | staining of DC over the following 20 hrs ([1]; 37° C., consistent with antigen uptake (FIG. 2D)) | DC viability during peptide incubation ([1]; 20 hrs at 37° C.) | time to binding of immature DC ([1]; biotinylated peptide, 4° C. (FIG. 2D))
AYYKTASLAPAE (PEPTIDE peptide specific to myeloid dendritic cells) [compound 12] | bound to DC | specifically bound | did not | specifically bound | – | – | – | –
EPIHPETTFTNN [control peptide, reference compound] | – | – | – | – | did not bind to DC | – | – | –
FYPSYHSTPQRP [peptide #3] | bound to DC | specifically bound | bound | specifically bound | – | decreased | remained viable | ≤ 1 h
SLSLLTMPGNAS (PEPTIDE peptide specific to myeloid dendritic cells) [compound 18] | bound to DC | specifically bound | did not | specifically bound | – | – | – | –
